Source: PubChem BioAssay (NCI)
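Tested at 5 concentrations; 48 h exposure; 96-well plates; endpoints linearly interpolated, else capped at highest concentration. TGI marks complete inhibition of growth.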

Columns and labels:
Test in all cases: inhibition of tumour cell growth, NCI panel, 48 h
[1] = system: CCRF-CEM leukemia
[2] = system: HL-60(TB) leukemia
[3] = system: HS 578T breast
[4] = system: K-562 leukemia
[5] = system: NCI-H226 lung
[6] = system: NCI-H522 lung
[7] = system: OVCAR-8 ovarian
[8] = system: RXF 393 renal
[9] = system: SR leukemia
[10] = system: U251 CNS

Row | SMILES | TGI [1] [µM] | TGI [2] [µM] | TGI [3] [µM] | TGI [4] [µM] | TGI [5] [µM] | TGI [6] [µM] | TGI [7] [µM] | TGI [8] [µM] | TGI [9] [µM] | TGI [10] [µM]
1 | Cc1ccnc(NS(=O)(=O)c2ccc(N=[N+]=[N-])cc2)n1 | > 49.7 | > 86.3 | > 100 | > 100 | > 100 | > 100 | > 100 | > 100 | > 100 | > 100
2 | Oc1ccccc1CNCc1nc2ccccc2[nH]1 | > 100 | > 100 | > 100 | > 100 | 87.4 | > 100 | > 100 | > 100 | > 100 | > 100
3 | CCOC(=O)Nc1sc2c(c1C#N)CCCC2 | > 100 | > 100 | > 100 | > 100 | > 100 | > 100 |  | > 100 | > 100 | > 100
4 | COc1ncc(/C=C2\OC(=O)c3ccccc32)c(OC)n1 | > 100 | > 100 | > 100 | > 100 | > 100 | > 100 | > 100 | > 100 | > 100 | > 100
5 | CC1(C(=O)O)CCC2(C)CCC3(C)C(=CC(=O)C4C5(C)CCC(O)C(C)(C)C5CCC43C)C2C1 (stereo not given) | 95.9 | 51.3 | 65.7 |  | > 100 | 50.1 | > 100 | 83 | 61 | > 100
6 | C=CC1(CC/C(=C\[N+](=O)[O-])c2ccc(OC)c(OC)c2)OCC(C)(C)CO1 | > 100 | 34.1 | 79.4 | > 100 | 56 | 37.8 | 36.9 | 36.3 | 29.4 | > 100
7 | CCC(=O)NC(Nc1cc(C)on1)(C(F)(F)F)C(F)(F)F | > 100 | > 100 | > 100 | > 100 | > 100 | > 100 | > 100 | > 100 | > 100 | > 100
8 | O=[N+]([O-])c1ccc2[nH]nc(OCc3ccccc3Cl)c2c1 | > 100 | > 100 | > 100 | > 100 | > 100 | 72.7 | > 100 | 48.2 | > 100 | > 100
9 | CC(C)c1cc2c(cc1S(=O)(=O)O)[C@@]1(C)CCC[C@@](C)(C(=O)O)C1CC2 (stereo not given in full) | > 100 | > 100 | > 100 | > 100 | > 100 | > 100 | > 100 | > 100 | > 100 | > 100
10 | O=C(N/N=C/c1ccc(Cl)cc1)c1c(Cl)c(Cl)c(Cl)c(Cl)c1-c1nc2ccccc2[nH]1 | > 100 | > 100 | > 100 | > 100 | > 100 | > 100 |  | > 100 | > 100 | 
11 | C/C(=C\CBr)CCC(Br)C(C)(C)Br (stereo not given) | > 100 | > 100 | > 100 | > 100 | > 100 | > 100 | > 100 | > 100 | > 100 | > 100
12 | Cn1c2ccc3cc2c(=S)c2cc(ccc21)OCCOCCOCCOCCOCCOCCO3 | > 10 | > 10 | > 10 | > 10 | > 10 | > 10 | > 10 | > 10 | > 10 | > 10
13 | CCCCCC1=CC(=O)C1(Cl)Cl | 6.15 | 4.06 | > 81.3 | 19.8 | 41.5 | 15.8 | 34 | 35.3 | 19.4 | 25.1
14 | CC(=O)Oc1cccc2c1C(=O)CCCC2 | > 100 | > 100 | > 100 | > 100 | > 100 | > 100 | > 100 | > 100 | > 100 | > 100
15 | COC(=O)C1=C(C(=O)OC)SC(=C2SCSC3=C2SC(C(=O)OC)=C(C(=O)OC)C32SC3=C(CCCC3)S2)S1 | > 100 | > 100 | > 100 | > 100 | > 100 | > 100 | > 100 | 70 | > 100 | > 100
16 | O=C(OCc1ccccc1)N1CCNCCN(C(=O)OCc2ccccc2)CCNCC1 | > 100 | 93.4 | 54.5 | > 100 | > 100 | 34.5 | > 100 | > 100 | > 100 | 61
17 | O=C(/C=C/c1ccc2c(c1)OCO2)c1ccc(O)cc1 | 35.3 | 28.7 | 34.1 | 27.1 | 37.9 | 6.72 | 3.11 | 29.6 | 4.96 | 26.9

Row | SMILES | TGI [1] [µM] | TGI [2] [µM] | TGI [3] [µM] | TGI [4] [µM] | TGI [5] [µM] | TGI [6] [µM] | TGI [7] [µM] | TGI [8] [µM] | TGI [9] [µM] | TGI [10] [µM]
18 | COc1ccc(-c2[nH]c3c4c(nc5c(c24)C(=O)CC(C)(C)C5)CC(C)(C)C3)cc1 | > 100 | > 100 | > 100 | > 100 | > 100 | > 100 | > 100 | > 100 | 92.1 | > 100
19 | Cc1cc(C)nc(NS(=O)(=O)c2ccc(NC(=O)c3ccc4nc5ccccc5c(Nc5ccc(S(N)(=O)=O)cc5)c4c3)cc2)n1 | 78.3 | > 100 | > 100 | > 100 | > 100 | > 100 | > 100 | > 100 | > 100 | > 100
20 | Nc1nccc(-c2c[nH]c3cc(Br)ccc23)n1 | > 100 | > 100 | 75.7 | > 100 | > 100 | 38.4 | > 100 | 49.3 | 46.7 | > 100
21 | Cc1ccc(NC(=O)c2ccc(OP(=O)(O)Nc3ccc(C)cc3)cc2)cc1 | > 100 | > 100 | > 100 | > 100 | > 100 | > 100 | > 100 | > 100 | > 100 | > 100
22 | CCOC(=O)N1CCN(Cc2cc(=O)n3ccc(C)cc3n2)CC1 | > 100 | > 100 | > 100 | > 100 | > 100 | > 100 | > 100 | > 100 | > 100 | > 100
23 | CC(=O)/C=C/C1=C(C)CCCC1(C)CC(C)C (stereo not given) | 36.6 | 30.3 | > 100 | 40.8 | > 100 | 57.8 | > 100 | 28.4 | 36.8 | 86.7
24 | N#CC(NCc1cccc(CNC(C#N)c2ccccc2)c1)c1ccccc1 (stereo not given) | 36.5 | 43.4 | > 100 | 31.9 | > 100 | > 100 | > 100 | > 100 | > 100 | > 100
25 | O=[N+]([O-])c1cc(C=NC23CC4CC(CC(C4)C2)C3)ccc1Cl | 7.97 | 8.28 | > 94 | > 43.6 | > 81.3 | 32.7 | > 90.9 | 37.2 | 12.9 | 41.6
26 | O=C(/C=C/c1ccccc1)C[C@@H](O)C[C@@H]1CC=CC(=O)O1 | 5.12 | 5.06 | > 87.3 | 7 | > 100 | 6.9 | 18.9 | > 23 | 11.5 | 21.7
27 | S=C(N/N=C(/c1ccccc1)c1ccccn1)N(Cc1ccccn1)Cc1ccccn1 | > 100 | > 100 | > 29.8 | > 100 | 0.433 | 4.5 | 1.13 | 2.74 | 43.5 | 
28 | CC(=O)c1c2c(c3ccccc3c1O)O[C@@H]1OCC[C@H]21 | > 100 | > 100 | > 100 | > 100 | > 100 | > 100 | > 100 | > 100 | > 100 | > 100
29 | COC(=O)c1c(C)nc2c1cc(O)c1[nH]c(C)c(C)nc12 | > 100 | > 100 | > 100 | > 100 | > 100 | > 100 | > 100 | > 100 | > 100 | > 100
30 | Cc1cc(-c2nc3ccc(F)cc3s2)ccc1NC(=O)[C@H](C)N | 6.23 | 7.45 | 28.5 | 4.7 | 19.3 | 20.7 | 27.3 | 21.7 | 5.65 | 9.06
31 | NC1(c2cc3ccccc3s2)CCCC1 | 42.3 | > 100 | > 100 | 63 | > 100 | > 100 | > 100 | > 100 | 44.2 | > 100
32 | NS(=O)(=O)c1nnc(NC(=O)Nc2ccc(Cl)c(Cl)c2)s1 | 37.3 | > 100 | 75.9 | > 100 | 65.8 | 30.1 | 49.9 | 35.3 | 60.6 | > 100
33 | CC(=O)Nc1nc(NC(C)=O)c2[nH]c(CO)nc2n1 | > 100 | > 100 | > 100 | > 100 | > 100 | > 100 | > 100 | > 100 | > 100 | > 100
34 | CC(=O)Nn1c(=S)[nH]c2ccccc21 | > 100 | > 100 | > 100 | > 100 | > 100 | > 100 | > 100 | > 100 | > 100 | > 100
